# Source: a melting point compilation (Tetko et al.; mined from patent text by program, amines drawn as free bases though some values may be those of a salt)
row,Structure (SMILES),melting point
1,O=C(O)CCc1cc(OCc2cc(COc3ccc(Cl)cc3Cl)cc(OCc3ccccc3)c2)nn1-c1ccccc1,126 to 130 °C
2,NC(=O)c1cc2cc(F)ccc2nc1N,232 to 236 °C
3,CSc1ccc(-c2cc(C(F)F)nn2-c2ccc(S(N)(=O)=O)cc2)cc1,157 to 158 °C
4,Nc1nc(N)c(CCNc2ccc(C(=O)N[C@@H](CCC(=O)O)C(=O)O)cc2)c(=O)[nH]1,180 to 185 °C
5,COC1CN(C(=O)Nc2ccc(C(F)(F)F)cc2)N=C1c1ccc(Cl)cc1 (configuration not stated),185 to 186 °C
6,CCCCc1nn(-c2ccccc2Cl)c(=O)[nH]1,103 to 104 °C
7,COC(=O)C1Cc2sc(N)c(C(=O)c3ccccc3Cl)c2C1 (configuration not stated),120 to 125 °C
8,COc1ccccc1OCC1SCCN1C(=O)CCl (configuration not stated),87 to 88 °C
9,CCCc1c(OCc2c(CCCCc3cccnc3)ccc(C(N)=O)c2OCC)ccc(C(C)=O)c1O,107 to 109 °C
10,O=C(Nc1ccc(-n2nc(C(F)(F)F)cc2C2CC2)c(F)c1)c1c(Cl)cncc1Cl,218 to 223 °C
11,OC1CSC(Oc2cccc3ocnc23)C(O)C1O (configuration not stated),172 °C
12,Cc1ccsc1C=C(O)C(=O)O,184 to 185 °C
13,O=C(Cc1ccccc1Nc1c(Cl)cccc1Cl)OCCOCCO[N+](=O)[O-],73 °C
14,OCc1cc(F)nc(F)c1F,48 to 49 °C
15,C[C@H](NC(=O)OC(C)(C)C)C(=O)NC1N=C(c2ccccn2)c2ccccc2N(C)C1=O (some centres not stated),228 to 229 °C
16,CCC(CC)Oc1nn(C)c(=O)c2c1ccn2-c1c(C)cc(C)cc1C,87 to 88 °C
17,CC(C)c1cccc(C(C)C)c1NC(=O)NCC1(c2ccc(N(C)C)cc2)CCCC1,132 to 133 °C
18,CN(C)C(=O)C(Cc1ccccc1)NC(=O)Nc1n[nH]c(=S)s1 (configuration not stated),196 to 197 °C
19,CCCCCCCCCCCCCCOc1ccc(C(=O)Cl)cc1OCCCCCCCCCCCCCC,68 to 70 °C
20,CC(=O)O[C@@H]1[C@@H](OC(C)=O)[C@H](C)O[C@@H](OC[C@H]2O[C@H](Br)[C@H](OC(C)=O)[C@@H](OC(C)=O)[C@@H]2OC(C)=O)[C@@H]1OC(C)=O,120 to 125 °C
21,CNc1ncc2c(=O)[nH]c(-c3ccccc3OC)nc2n1,265 to 267 °C
22,O=C([C@@H]1CCCN1S(=O)(=O)c1ccc2ccccc2c1)N1C[C@@H](c2ccc(Cl)cc2)Sc2ccccc21,147 to 151 °C
23,CCCCCCCCCCc1nnn(CC(=O)O)n1,83 to 86 °C
24,CCCONNc1nc(C(=O)c2ccccc2O)nc(C(=O)c2ccccc2O)n1,258 to 260 °C
25,CCCc1nc2c(N)nc(C)c(C)c2n1CCCCN(OC)C(=O)c1ccccc1,136 to 137 °C

row,Structure (SMILES),melting point
1,O=C(O)CCc1cn(Cc2cc(OCc3ccccc3)cc(OCc3csc(-c4cnccn4)n3)c2)cc1-c1ccccc1,109 to 110 °C
2,COc1ccc(S(N)(=O)=O)cc1C(N)=O,178 °C
3,CC(=O)c1ccc(-c2ccc(N(Cc3ccccc3)Cc3ccccc3)cc2)c(C)c1,145 to 146 °C
4,O=c1c2cc(F)c(N3CCCC3)nc2n(-c2ccc(F)cc2F)c(=O)n1OCc1ccccc1,183 to 185 °C
5,CS(=O)(=O)c1ccc(-c2cnn(-c3csc4ccccc34)c(=O)c2-c2ccc(F)cc2)cc1,265 to 267 °C
6,NC(=O)c1cc(C(=O)N(CCO)CCO)cc([N+](=O)[O-])c1,151 °C
7,Cc1ccc(Cl)c(NS(=O)(=O)c2nc(C)n(-c3ncccn3)n2)c1Cl,214 to 216 °C
8,CC(C)Cn1c(CNC(=O)OC(C)(C)C)c(-c2cccs2)c2cc(C#N)ccc2c1=O,189 to 190 °C
9,CN(C)C(=S)SC(C[N+](=O)[O-])c1ccccc1 (configuration not stated),105 to 106 °C
10,NS(=O)(=O)c1ccc(-c2[nH]c3ccccc3c2-c2ccc(Br)cc2)cc1,277 to 279 °C
11,CCOc1ccc(-c2nc(-c3ccc(S)cc3C(=O)O)cs2)cc1OCC,283 to 285 °C
12,CCCS(=O)(=O)c1ccccc1S(N)(=O)=O,122 to 124 °C
13,Cc1cc(OC(F)F)ccc1NC(=O)c1cccc(I)c1C(=O)NC(C)C,207 to 209 °C
14,CCc1c(-c2ccc(OCc3ccccc3)cc2)c2c(C(=O)O)c(C(=O)O)c3c(OCc4ccccc4)ccc1n32,151 to 161 °C
15,COc1ccccc1C(=C1CN(C(c2ccccc2)c2ccccc2)C1)S(C)(=O)=O,204 °C
16,Cc1ccc(S(=O)(=O)OCC2CCN(C(c3ccccc3)(c3ccccc3)c3ccccc3)CC2)cc1,192 °C
17,COc1ccc(-c2nc(N)ncc2-c2ccc(=O)n(C)n2)cc1OC,232 °C
18,O=c1cc(-c2nnn[nH]2)oc2cc(COc3cccc(OCc4ccc5ccccc5n4)c3)ccc12,246 °C
19,Cc1nccc(N2CCN(C(=O)C3CCN(S(=O)(=O)c4ccc(Br)cc4)CC3)CC2)n1,239 to 240 °C
20,CNC(=O)n1nc(Oc2ccc(C(F)(F)F)cc2[N+](=O)[O-])cc1C(F)(F)F,102 to 104 °C
21,c1ccc(-c2ncc(-c3n[nH]c(-c4cccnc4)n3)cn2)cc1,322 to 333 °C
22,c1ccc2c(C3CCC4(CC3)OCCO4)c[nH]c2c1,163 to 165 °C
23,CCOC(=O)c1c(CCl)nc2cc3c(cc2c1-c1ccc(OC)c(OC)c1)OCCO3,197 to 198 °C
24,NC(=O)c1c(NC(=O)C2CC2)sc2c(O)c(Br)ccc12,235 to 236 °C
25,CC(=O)OCCN1CCSc2ccc(Nc3ncc(Cl)c(N[C@@H]4CCCC[C@H]4NS(C)(=O)=O)n3)cc2C1,85 to 90 °C

row,Structure (SMILES),melting point
1,Cn1c(C(=O)c2ccc(Cc3ccc(F)cc3)o2)c(O)c(=O)n1C,110 to 111 °C
2,CCOC(=O)c1ccccc1-n1c(C)nc2cnccc21,125 to 127 °C
3,CN1CCN(c2cc(Cl)cc3c2c(=O)n(Cc2ccc([N+](=O)[O-])cc2)c(=O)n3Cc2ccccc2)CC1,109 to 113 °C
4,Cc1ccccc1S(=O)(=O)NC(N)=O,179 to 180 °C
5,O=c1[nH]cc(C2CCCCC2)c2ccccc12,111 to 112 °C
6,CS(=O)c1[nH]cc(CCc2ccccc2)c1[N+](=O)[O-] (configuration not stated),172 to 173 °C
7,CN1CC=C(C2=Cc3ccccc3Oc3ccc(Br)cc32)CC1,144 to 146 °C
8,CCC1CC2=CC(OC(=O)c3ccc([N+](=O)[O-])cc3)CCC2C2CCC3(C)C(O)CCC3C12 (configuration not stated),135 to 136 °C
9,COc1ccc2c(c1)CCCCN2C(=O)Nc1cccc(C(F)(F)F)c1,108 °C
10,CC(O)c1cc(F)ccc1Oc1nc2ccc(NC(=O)Nc3cccc([N+](=O)[O-])c3)cc2cc1Cc1ccccc1 (configuration not stated),217 to 219 °C
11,CCCCn1nc(C(N)=O)cc1CC,60 to 61 °C
12,O=C(/C=C/c1cccc(NC(=O)CCCc2ccccc2)c1)NO,152 to 153 °C
13,CCC(C(=O)N(C)C)n1cc(C)c(-c2ccc(Cl)cc2C)n1 (configuration not stated),89 to 92 °C
14,CC(=O)NC(NC(=O)C(F)(F)F)C(=O)NCc1ccccc1 (configuration not stated),228 to 230 °C
15,CC(C)(C)c1ccc(CC2CCN(C(=O)C(=O)Nc3ccc4[nH]c(=O)oc4c3)CC2)cc1,168 °C
16,CCCCCCC1=CC(O)(C(Br)Br)N(Cc2ccccc2)C1=O (configuration not stated),105 to 108 °C
17,N#CC=Cc1ccc(Br)cc1,106 °C
18,CCCCN(CC(=O)N1c2ccccc2N(CC)C(=O)c2cnc(-c3ccccc3)nc21)C(C)(C)C,70 to 72 °C
19,CCC12CCC3=C(CCc4cc(OC(C)=O)ccc43)C1CCC2=O (configuration not stated),132 to 134 °C
20,COc1ccc(-n2c3ccccc3c3cc(C=C(C#N)c4ccc(F)c(F)c4F)ccc32)cc1,124 to 126 °C
21,CCCCOc1ccc(S(=O)(=O)Nc2onc(C)c2Br)cc1,98 to 100 °C
22,CCn1c(=O)c2c(nc(/C=C/c3ccc(OCC(=O)c4ccccc4)c(OC)c3)n2C)n(CC)c1=O,180 to 182 °C
23,O=C(NCCCCOc1cc(CN2CCCCC2)ccn1)c1cn[nH]c1,145 to 147 °C
24,Cc1nnc(-c2ccc3occ(-c4ccc(C(C)O)cc4)c3c2)o1 (configuration not stated),148 to 149 °C
25,O=C(Nc1cc(Cl)cc(Cl)c1)c1cc(F)ccc1O,258 to 260 °C

row,Structure (SMILES),melting point
1,O=C1NC(=O)C(Cc2cc(O)c(O)c([N+](=O)[O-])c2)C(=O)N1,263 to 266 °C
2,COc1cc2ncnc(N3CCC(CCN4C=CC=NS4(=O)=O)CC3)c2cc1OC,176 to 178 °C
3,CC(=O)N(CC(=O)O)c1ccc(C)cc1C,165 to 172 °C
4,COCOc1cc(OCOC)c2c(=S)cc(C)oc2c1,109 to 110 °C
5,CCCCCCCC[C@H](N[C@@H](C)C(=O)O)C(=O)OCC,127 to 128 °C
6,Cn1c(CCN2CCN(Cc3ccccc3)CC2)nc2ccc3ccccc3c21,144 to 146 °C
7,COC(=O)CCCCC(=O)c1ccc(F)cc1,41 to 43 °C
8,CN(C)C=CC(=O)c1ccc(Cl)c(S(=O)(=O)N=CN(C)C)c1,204 to 206 °C
9,CCC(=O)c1cc(-c2ccc(OC)cc2)no1,135 to 136 °C
10,COc1ccc(O)c2[nH]c(C)c(C)c12,159 °C
11,CC(C)(C)Sc1c(CC(C)(C)C(=O)O)n(Cc2ccc(Cl)cc2)c2ccc(OCc3cccnc3)cc12,206 to 208 °C
12,Cc1cc(Cl)cc2nc3c(=O)[nH][nH]c(=O)c3c(O)c12,117 to 119 °C
13,CCC(C)(CC(=O)Nc1cccc(OCc2ccc3ccc(F)cc3n2)c1)C(=O)O (configuration not stated),179 to 180 °C
14,CCCCCCC(C)(C)c1cc(O)c2c(c1)OC(C)(C)CC2C(=O)O (configuration not stated),147 to 148 °C
15,COc1ccc(S(=O)(=O)Nc2ccccc2/C=C/c2ccncc2)cc1,207 to 209 °C
16,CCOc1cc2ncc3c(N)nc(-c4cccnc4)cc3c2cc1OCC,241 to 245 °C
17,CCCn1c(=O)c2[nH]c(/C=C/c3cc(Br)c(OC)c(OC)c3)nc2n(CCC)c1=O,277 to 278 °C
18,CCOC(=O)c1c(O)nc(SC(C)C)n1C(C)C,97 to 98 °C
19,CCCCCCCC[Si](C)(C)CCSCCNC(=O)n1cc(F)c(=O)[nH]c1=O,60 to 61 °C
20,CN(C(=O)c1ccc(-c2ccccc2)cc1)c1ccccc1,99 to 102 °C
21,COc1ccc2c(c1)Sc1cc(OC(C)=O)c(OC)cc1N2,172 to 174 °C
22,CC(C)(C)n1cc(-c2ccc(N(C=O)c3ccccc3)cc2)c2cncnc21,163 to 164 °C
